Results published in patent US20230293535A1, “ERBB/BTK INHIBITORS” (Dizal (Jiangsu) Pharmaceutical Co., Ltd., priority 2018, published 2023).

Columns and labels:
Type in all cases: cell-based
[1] = molecular target: T1, human EGFR exon 20 H773_V774insNPH (Homo sapiens, UniProt P00533, INS773NPH); experiment: EGFR Exon20 NPH insertion cellular phosphorylation inhibition (MSD pEGFR Y1068/total EGFR); conditions: Ba/F3 EGFR NPH ins cells, 4 h compound, p-EGFR(Y1068)/total EGFR;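 further: IL3-independent Ba/F3 cells with constitutively phosphorylated EGFR, compound exposure at 37 °C under 5% CO2, electrochemiluminescent MSD measurement of the p-EGFR to total EGFR ratio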
T1 construct: host or cells: Ba/F3
T1 sequence (P00533 with tags, fused parts or gaps INS773NPH): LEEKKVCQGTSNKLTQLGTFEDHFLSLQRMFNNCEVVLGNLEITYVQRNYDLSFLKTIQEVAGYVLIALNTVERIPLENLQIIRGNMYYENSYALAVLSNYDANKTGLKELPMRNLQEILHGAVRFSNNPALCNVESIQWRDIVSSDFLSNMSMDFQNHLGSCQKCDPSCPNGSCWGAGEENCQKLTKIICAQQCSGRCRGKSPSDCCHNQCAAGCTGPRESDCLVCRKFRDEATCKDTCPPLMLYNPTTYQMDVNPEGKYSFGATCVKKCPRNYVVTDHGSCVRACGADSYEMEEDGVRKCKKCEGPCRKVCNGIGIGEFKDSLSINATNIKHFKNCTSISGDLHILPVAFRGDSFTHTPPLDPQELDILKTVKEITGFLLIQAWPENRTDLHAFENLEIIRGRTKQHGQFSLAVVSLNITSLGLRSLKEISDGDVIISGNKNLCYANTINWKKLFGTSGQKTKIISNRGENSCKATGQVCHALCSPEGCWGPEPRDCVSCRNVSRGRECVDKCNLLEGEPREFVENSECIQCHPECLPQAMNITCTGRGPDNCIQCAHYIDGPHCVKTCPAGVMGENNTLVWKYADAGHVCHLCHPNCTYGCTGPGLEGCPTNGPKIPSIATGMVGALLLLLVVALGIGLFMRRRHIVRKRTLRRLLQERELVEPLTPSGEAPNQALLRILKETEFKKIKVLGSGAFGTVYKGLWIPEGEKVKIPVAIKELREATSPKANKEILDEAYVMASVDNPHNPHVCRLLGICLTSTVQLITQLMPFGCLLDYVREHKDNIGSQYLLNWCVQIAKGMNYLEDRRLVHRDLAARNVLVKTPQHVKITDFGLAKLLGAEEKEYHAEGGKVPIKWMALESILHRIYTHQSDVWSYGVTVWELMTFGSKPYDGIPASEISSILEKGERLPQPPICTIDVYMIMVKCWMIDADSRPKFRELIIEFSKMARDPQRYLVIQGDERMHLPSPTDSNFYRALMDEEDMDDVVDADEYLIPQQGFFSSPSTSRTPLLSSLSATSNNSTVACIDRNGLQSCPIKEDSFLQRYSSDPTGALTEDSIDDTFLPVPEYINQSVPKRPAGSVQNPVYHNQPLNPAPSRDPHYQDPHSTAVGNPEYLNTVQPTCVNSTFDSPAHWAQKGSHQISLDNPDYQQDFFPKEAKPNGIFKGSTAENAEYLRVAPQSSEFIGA

[2] = tested on: Her2 exon 20 insertion YVMA transduced NIH-3T3 cell line; experiment: Cell proliferation, Her2 YVMAins NIH-3T3 (CellTiter-Glo, 72 h); conditions: Mus musculus, NIH3T3, 72 h, Her2 YVMAins cells, 72 h proliferation; read-out: Her2 Exon 20 YVMA insertion GI50;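 further: viable cells quantified by ATP luminescence, growth over a day-zero baseline plate expressed as percent of DMSO control growth, compound dilution series in 10% FBS medium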
Experimental: (§1) WT or mutant cells were seeded in 384 well plates at appropriate concentrations with corresponding growth media supplemented with 10% FBS, for each experiment, identical plates were prepared in duplicates, and the plates were incubated overnight. On the next day, one of each duplicated plates was dosed with tested compounds at a series of concentrations, and another one of the duplicated plate was analysied for G0 value. The dosed plates were incubate for another 72 h at 37° C. with 5% CO2 and the number of viable cells in each well of the G0 plates or the dosed plates were measured by CellTiter-Glo® Luminescent Cell Viability Assay (Promega). This assay is a luminescent method for determining the number viable cells through measurement of cellular ATP concentration by detection of luciferase activity. Detection reagents (15 µl) was dispensed into per well, and the plates were incubate for 30 min at room temperature. Then, the luminescence in each well was measured using the Envision plate reader (PerkinElmer). The percentage of proliferation was calculated based on the formula: %Proliferation= 100 × (G3 value of sample well-Go value)/(G3 value of DMSO control-Go value).

OCI-LY-10 cells = experiment: BTK (wt) cell proliferation, OCI-LY-10 (CellTiter-Glo, 72 h); conditions: Homo sapiens, OCI-Ly10, 72 h, OCI-LY-10 cells, 72 h, CellTiter-Glo; read-out: BTK WT OCI-LY-10 GI50;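 further: viable cells quantified via cellular ATP luminescence, proliferation given as percent of DMSO control after subtracting a duplicate plate read at time of dosing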
[3] = tested on: NCI-H1975 EGFR L858R/T790M cells; experiment: Cell proliferation, NCI-H1975 EGFR L858R/T790M (CellTiter-Glo, 72 h); conditions: Homo sapiens, NCI-H1975, 72 h, NCI-H1975, 72 h proliferation; read-out: EGFR L858R and T790M mutation GI50;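 further: viable cells quantified by luciferase-based ATP luminescence, proliferation expressed relative to DMSO-treated wells (100%) after subtracting a parallel plate read at the time of dosing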
Ba/F3 EGFR ASV ins cells = experiment: Cell proliferation, Ba/F3 EGFR ASV ins (CellTiter-Glo, 72 h); conditions: Ba/F3 EGFR, 72 h, Ba/F3 EGFR ASV ins, 72 h proliferation; read-out: EGFR Exon20 ASV insertion GI50;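 further: IL3-independent Ba/F3 cells transduced with EGFR V769_D770insASV, cellular ATP luminescence after compound exposure, growth relative to DMSO control with the day-0 baseline reading subtracted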
TMD-8 cells = experiment: BTK (wt) cell proliferation, TMD-8 (CellTiter-Glo, 72 h); conditions: Homo sapiens, TMD8, 72 h, TMD-8 cells, 72 h, CellTiter-Glo; read-out: BTK WT TMD-8 GI50;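 further: viable cells quantified by ATP-based luminescence, proliferation expressed as percent of DMSO control after subtracting a time-zero baseline plate read at dosing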
[4] = molecular target: T2, human Her2 exon 20 insertion mutation YVMA (Homo sapiens, UniProt P04626, INS775YVMA); experiment: Her2 Exon 20 YVMA insertion cellular phosphorylation inhibition (MSD p-Her2 Y1248/total Her2); conditions: Her2 YVMAins cells, 4 h compound;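 further: lentivirally transduced NIH-3T3 cells in 1% FBS medium, electrochemiluminescent MSD read-out, graded compound concentrations at 37 °C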
T2 construct: expressed in transfected cells; host or cells: NIH-3T3, lentiviral transduction, puromycin selection
T2 sequence (P04626 with tags, fused parts or gaps INS775YVMA): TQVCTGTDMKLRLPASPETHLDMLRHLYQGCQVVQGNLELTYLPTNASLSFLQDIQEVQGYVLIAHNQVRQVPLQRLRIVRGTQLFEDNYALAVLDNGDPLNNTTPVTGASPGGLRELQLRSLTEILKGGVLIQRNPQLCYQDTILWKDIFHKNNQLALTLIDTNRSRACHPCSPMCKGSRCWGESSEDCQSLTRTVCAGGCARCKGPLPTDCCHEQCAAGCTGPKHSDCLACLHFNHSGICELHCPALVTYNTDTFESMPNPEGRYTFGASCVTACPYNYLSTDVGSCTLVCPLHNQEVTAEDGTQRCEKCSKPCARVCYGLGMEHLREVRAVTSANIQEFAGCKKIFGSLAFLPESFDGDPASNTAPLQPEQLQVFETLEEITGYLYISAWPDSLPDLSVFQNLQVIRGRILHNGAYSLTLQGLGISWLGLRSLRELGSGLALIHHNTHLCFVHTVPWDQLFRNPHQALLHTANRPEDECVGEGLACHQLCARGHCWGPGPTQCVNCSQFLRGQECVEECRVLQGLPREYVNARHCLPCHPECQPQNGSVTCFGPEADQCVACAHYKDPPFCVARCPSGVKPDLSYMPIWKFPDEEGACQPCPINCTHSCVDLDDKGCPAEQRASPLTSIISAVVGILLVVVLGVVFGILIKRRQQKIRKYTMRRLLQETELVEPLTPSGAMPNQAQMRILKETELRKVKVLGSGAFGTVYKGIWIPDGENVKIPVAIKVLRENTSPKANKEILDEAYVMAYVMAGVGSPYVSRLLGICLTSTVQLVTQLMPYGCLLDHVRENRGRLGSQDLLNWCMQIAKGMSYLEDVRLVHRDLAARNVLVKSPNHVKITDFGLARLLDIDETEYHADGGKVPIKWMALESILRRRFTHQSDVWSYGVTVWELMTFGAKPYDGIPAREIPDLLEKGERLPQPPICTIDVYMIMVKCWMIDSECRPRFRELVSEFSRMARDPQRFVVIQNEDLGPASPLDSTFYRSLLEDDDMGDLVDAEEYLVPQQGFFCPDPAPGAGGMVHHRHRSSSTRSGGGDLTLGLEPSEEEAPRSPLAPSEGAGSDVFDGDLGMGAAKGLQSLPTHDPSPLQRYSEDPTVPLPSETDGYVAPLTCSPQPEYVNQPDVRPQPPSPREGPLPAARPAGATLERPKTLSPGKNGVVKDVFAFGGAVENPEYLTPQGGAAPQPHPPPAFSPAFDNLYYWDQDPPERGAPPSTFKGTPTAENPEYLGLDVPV

Ba/F3 EGFR NPH ins cells = experiment: Cell proliferation, Ba/F3 EGFR NPH ins (CellTiter-Glo, 72 h); conditions: Ba/F3 EGFR, 72 h, Ba/F3 EGFR NPH ins, 72 h proliferation; read-out: EGFR Exon20 NPH insertion GI50;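 further: IL3-independent cells carrying constitutively phosphorylated EGFR, compound dilution series, viable cells quantified by ATP luminescence, growth relative to DMSO wells after subtracting pre-dosing (day 0) baseline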
WT EGFR = molecular target: T3, WT EGFR (Homo sapiens, UniProt P00533); experiment: WT EGFR cellular phosphorylation inhibition in A-431 (hEGF stimulated, MSD); conditions: A431 cells, 4 h compound, then 100 ng/ml hEGF 10 min;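 further: electrochemiluminescence read-out of EGFR Tyr1068 phosphorylation expressed as ratio to total EGFR, cells kept in medium with 1% FBS, compounds tested as a concentration series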
T3 construct: host or cells: A-431
T3 sequence (P00533 25-1210): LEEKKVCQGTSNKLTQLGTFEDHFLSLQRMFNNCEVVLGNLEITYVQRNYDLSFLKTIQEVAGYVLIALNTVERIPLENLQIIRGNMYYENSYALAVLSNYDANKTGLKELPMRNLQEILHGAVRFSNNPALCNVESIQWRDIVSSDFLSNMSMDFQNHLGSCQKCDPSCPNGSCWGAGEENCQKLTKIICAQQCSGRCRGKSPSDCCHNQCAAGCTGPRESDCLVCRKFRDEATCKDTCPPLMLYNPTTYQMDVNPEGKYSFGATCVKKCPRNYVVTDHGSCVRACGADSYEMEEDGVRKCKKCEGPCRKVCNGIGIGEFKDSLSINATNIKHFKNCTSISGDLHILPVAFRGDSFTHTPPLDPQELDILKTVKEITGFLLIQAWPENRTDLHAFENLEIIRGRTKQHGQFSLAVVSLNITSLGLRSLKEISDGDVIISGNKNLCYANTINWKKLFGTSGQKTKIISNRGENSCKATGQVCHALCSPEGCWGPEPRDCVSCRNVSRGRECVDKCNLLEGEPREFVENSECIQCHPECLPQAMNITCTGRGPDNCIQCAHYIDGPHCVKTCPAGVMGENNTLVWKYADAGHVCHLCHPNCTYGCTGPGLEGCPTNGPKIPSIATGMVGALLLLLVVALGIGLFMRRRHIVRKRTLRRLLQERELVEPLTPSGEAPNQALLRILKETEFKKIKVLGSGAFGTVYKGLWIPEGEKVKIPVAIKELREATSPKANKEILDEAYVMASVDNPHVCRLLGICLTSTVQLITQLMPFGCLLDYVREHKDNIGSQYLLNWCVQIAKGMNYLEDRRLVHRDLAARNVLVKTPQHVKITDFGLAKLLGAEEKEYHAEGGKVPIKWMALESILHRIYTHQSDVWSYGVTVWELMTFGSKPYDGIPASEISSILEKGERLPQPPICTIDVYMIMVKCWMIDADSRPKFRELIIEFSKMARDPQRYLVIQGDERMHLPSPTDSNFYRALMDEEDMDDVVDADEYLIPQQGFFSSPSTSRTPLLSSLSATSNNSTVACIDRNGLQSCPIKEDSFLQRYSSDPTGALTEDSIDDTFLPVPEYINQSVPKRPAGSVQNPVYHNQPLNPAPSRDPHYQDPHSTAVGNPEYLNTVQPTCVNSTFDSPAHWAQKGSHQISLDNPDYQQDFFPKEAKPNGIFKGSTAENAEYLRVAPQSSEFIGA
Experimental: One day before the test, WT or mutant cells were seeded in 96 well plates at appropriate concentrations with corresponding growth media supplemented with 1% FBS, and incubated overnight. The next day, tested compounds at a series of concentrations were added into each individual well of the plates, and the plates were incubated for 4 h at 37° C. with 5% CO2.
The EGFR (Y1068) phosphorylation level (activity) of cells in each well were then measured with MSD kit named “MULTI-SPOT®96 4-Spot HB Prototype EGFR Triplex [sequence]: pEGFR(Tyr1068),pEGFR(Tyr1173), Total EGFR” according to the manufacturer’s instruction (MESO SCALE DISCOVERY, Cat# N45ZB-1). The assay is an electrochemiluminescent method for determining both phosphorylated and total EGFR of cells with an MSD SECTOR® Imager and the ratio of p-EGFR/total EGFR can be generated by the machine. The Her2 (Y1248) phosphorylation level (activity) of cells in each well were measured with MSD Kit named “Phospho-ErbB2 (Tyr1248) Assay Whole Cell Lysate Kit” according to the manufacturer’s instruction (MESO SCALE DISCOVERY, Cat# K151CLD-3). The assay is an electrochemiluminescent method (MESO SCALE DISCOVERY) for determining both phosphorylated and total Her2 of cells with an MSD SECTOR® Imager and then the ratio of p-Her2/total Her2 can be generated by the machine.

[5] = molecular target: T4, human EGFR exon 20 V769_D770insASV (Homo sapiens, UniProt P00533, INS769ASV); experiment: EGFR Exon20 ASV insertion cellular phosphorylation inhibition (MSD pEGFR Y1068/total EGFR); conditions: Ba/F3 EGFR ASV ins cells, 4 h compound, p-EGFR(Y1068)/total EGFR;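 further: electrochemiluminescent readout on an MSD SECTOR Imager, IL3-independent transduced cells in medium with 1% FBS, compound concentration series at 37 °C and 5% CO2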
T4 construct: expressed in transfected cells; host or cells: Ba/F3 (DSMZ ACC-300), lentiviral transduction, puromycin selection, IL3 depletion

EGFR L858R&T790M = molecular target: T5, EGFR L858R&T790M (Homo sapiens, UniProt P00533, L858R/T790M); experiment: EGFR L858R and T790M cellular phosphorylation inhibition in NCI-H1975 (MSD); conditions: NCI-H1975 cells, 4 h compound, p-EGFR(Y1068)/total EGFR; read-out: EGFR L858R and T790M mutation IC50;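 further: phosphorylated and total EGFR detected by electrochemiluminescence, cells exposed to compound in medium containing 1% FBS at 37 °C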
T5 construct: host or cells: NCI-H1975
T5 sequence (P00533 25-1210 T790M/L858R): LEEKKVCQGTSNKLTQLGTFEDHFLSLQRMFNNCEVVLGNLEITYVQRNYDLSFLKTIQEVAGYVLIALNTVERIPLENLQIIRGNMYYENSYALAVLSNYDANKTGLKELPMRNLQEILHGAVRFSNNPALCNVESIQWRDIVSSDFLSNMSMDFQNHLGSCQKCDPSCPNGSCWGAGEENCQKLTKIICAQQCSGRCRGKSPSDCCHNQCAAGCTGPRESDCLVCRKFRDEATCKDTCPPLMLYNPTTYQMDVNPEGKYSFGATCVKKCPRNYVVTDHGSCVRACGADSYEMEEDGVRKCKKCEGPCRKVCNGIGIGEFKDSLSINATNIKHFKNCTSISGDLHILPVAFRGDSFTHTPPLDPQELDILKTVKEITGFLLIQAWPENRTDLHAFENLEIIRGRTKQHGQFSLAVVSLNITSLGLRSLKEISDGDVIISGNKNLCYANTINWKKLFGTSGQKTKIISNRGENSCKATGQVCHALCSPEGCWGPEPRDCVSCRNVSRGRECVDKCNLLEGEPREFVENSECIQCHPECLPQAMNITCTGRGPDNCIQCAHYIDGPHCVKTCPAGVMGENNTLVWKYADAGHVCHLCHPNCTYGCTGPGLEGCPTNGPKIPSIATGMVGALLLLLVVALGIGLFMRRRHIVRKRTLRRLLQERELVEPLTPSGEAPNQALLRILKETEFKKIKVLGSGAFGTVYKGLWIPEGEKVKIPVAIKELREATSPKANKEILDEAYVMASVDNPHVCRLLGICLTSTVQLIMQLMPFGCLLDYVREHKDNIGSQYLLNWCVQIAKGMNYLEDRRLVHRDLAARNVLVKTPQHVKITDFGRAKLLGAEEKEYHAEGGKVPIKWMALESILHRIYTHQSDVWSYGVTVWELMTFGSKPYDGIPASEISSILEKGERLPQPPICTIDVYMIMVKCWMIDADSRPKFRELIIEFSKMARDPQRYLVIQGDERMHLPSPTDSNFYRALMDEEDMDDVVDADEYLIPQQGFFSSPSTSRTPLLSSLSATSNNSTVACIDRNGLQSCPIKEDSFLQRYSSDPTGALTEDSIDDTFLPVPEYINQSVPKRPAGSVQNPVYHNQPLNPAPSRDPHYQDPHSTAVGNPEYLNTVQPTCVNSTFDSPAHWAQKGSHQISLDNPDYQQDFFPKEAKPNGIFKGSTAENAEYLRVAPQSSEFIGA

DB cells = experiment: BTK (wt) cell proliferation, DB (CellTiter-Glo, 72 h); conditions: Homo sapiens, DB, DB cells, CellTiter-Glo, read-out: Non-BCR activated DB GI50;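 further: DB cells in 384-well plates given a dilution series of compound, viable cells read by ATP luminescence, growth expressed versus DMSO control after subtracting a time-zero plate reading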
WT EGFR cell line A-431 = experiment: Cell proliferation, WT EGFR A431 (CellTiter-Glo, 72 h); conditions: Homo sapiens, A-431, 72 h, A431, 72 h proliferation; read-out: EGFR WT A431 GI50;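 further: proliferation from a luminescent ATP viability signal, expressed as 100 × (treated minus time-zero plate) over (DMSO control minus time-zero plate), cells grown with 10% FBS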
Experimental: as §1

Ri-1 cells = experiment: BTK (wt) cell proliferation, Ri-1 (CellTiter-Glo, 72 h); conditions: Ri-1, 72 h, Ri-1 cells, 72 h, CellTiter-Glo; read-out: BTK WT Ri-1 GI50;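 further: viable cells quantified as cellular ATP luminescence, proliferation normalized to a time-zero plate and the DMSO control, compounds tested across a dilution series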

Row | IC50 [1] [nM] | GI50 (OCI-LY-10 cells) [nM] | GI50 [3] [nM] | GI50 (Ba/F3 EGFR ASV ins cells) [nM] | IC50 [4] [nM] | GI50 (Ba/F3 EGFR NPH ins cells) [nM] | IC50 (WT EGFR) [nM] | IC50 [5] [nM] | IC50 (EGFR L858R&T790M) [nM] | GI50 (WT EGFR cell line A-431) [nM] | SMILES | GI50 [2] [nM] | GI50 (TMD-8 cells) [nM] | GI50 (DB cells) [nM] | GI50 (Ri-1 cells) [nM]
1 | 50.6 | 119 | 8.9 | 58.2 | 15.2 | 67.7 | 42.1 | 21.7 | 1.4 | 21.2 | C=CC(=O)Nc1cc(Nc2ncnc(Nc3cc(Cl)c(F)cc3C(C)(C)O)n2)c(OC)cc1N1CC[C@@H]2CN(C)C[C@@H]21 [Compound 28, N-(5-(4-(5-chloro-4-fluoro-2-(2-hydroxypropan-2-yl)phenylamino)-1,3,5-triazin-2-ylamino)-4-methoxy-2-((3aR,6aR)-5-methylhexahydropyrrolo[3,4-b]pyrrol-1 (2H)-yl)phenyl)acrylamide] | 114 | 34 | > 3000 | 230
2 | 11.1 | 13.1 | 3.7 | 25.9 | 5.5 | 19.3 | 13.2 | 5.7 | 0.5 | 12.4 | C=CC(=O)Nc1cc(Nc2ncnc(Nc3cc(Cl)c(F)cc3C(C)(C)O)n2)c(OC)cc1N(C)C[C@H]1CCCN1C [Compound 30, (R)-N-(5-(4-(5-chloro-4-fluoro-2-(2-hydroxypropan-2-yl)phenylamino)-1,3,5-triazin-2-ylamino)-4-methoxy-2-(methyl((1-methylpyrrolidin-2-yl)methyl)amino)phenyl) acrylamide] | 47.5 | 17.8 | > 3000 | 28.6
3 | 13.8 | 30 | 4.2 | 9.2 | 4.3 | 47.9 | 5.5 | 5 | 0.5 | 4.2 | C=CC(=O)Nc1cc(Nc2ncnc(Nc3cc(Cl)c(F)cc3C(C)(C)O)n2)c(OC)cc1N1CCC[C@@H]1CN(C)C [Compound 31, (R)-N-(5-(4-(5-chloro-4-fluoro-2-(2-hydroxypropan-2-yl)phenylamino)-1,3,5-triazin-2-ylamino)-2-(2-((dimethylamino)methyl)pyrrolidin-1-yl)-4-methoxyphenyl)acrylamide] | 60.1 | 7.18 | > 3000 | 59.9
4 | 9.2 | 986 | 1.5 | 24.3 | 4.7 | 22.2 | 13.9 | 5.4 | 0.5 | 21.9 | C=CC(=O)Nc1cc(Nc2ncnc(Nc3cc(F)c(F)cc3C(C)(C)O)n2)c(OC)cc1N1CCOC[C@@H]1CN(C)C [Compound 35, (S)-N-(5-(4-(4,5-difluoro-2-(2-hydroxypropan-2-yl)phenylamino)-1,3,5-triazin-2-ylamino)-2-(3-((dimethylamino)methyl)morpholino)-4-methoxyphenyl) acrylamide] | 39.4 | 377 | > 3000 | 699
5 | 10.9 | 15.1 | 2.1 | 25.7 | 5 | 22 | 19.3 | 13 | 0.9 | 13.6 | C=CC(=O)Nc1cc(Nc2ncnc(Nc3cc(Cl)c(F)cc3C(C)(C)O)n2)c(OC)cc1N1CCOC[C@@H]1CN(C)C [Compound 40, (S)-N-(5-(4-(5-chloro-4-fluoro-2-(2-hydroxypropan-2-yl)phenylamino)-1,3,5-triazin-2-ylamino)-2-(3-((dimethylamino)methyl)morpholino)-4-methoxyphenyl)acrylamide] | 43.4 | 15.1 | > 3000 | 11.9

Second part, the compound before the results:

Row | SMILES | IC50 [1] [nM] | GI50 (OCI-LY-10 cells) [nM] | GI50 [3] [nM] | GI50 (Ba/F3 EGFR ASV ins cells) [nM] | IC50 [4] [nM] | GI50 (Ba/F3 EGFR NPH ins cells) [nM] | IC50 (WT EGFR) [nM] | IC50 [5] [nM] | IC50 (EGFR L858R&T790M) [nM] | GI50 (WT EGFR cell line A-431) [nM] | GI50 [2] [nM] | GI50 (TMD-8 cells) [nM] | GI50 (DB cells) [nM] | GI50 (Ri-1 cells) [nM]
6 | C=CC(=O)Nc1cc(Nc2ncnc(Nc3cc(Cl)c(F)cc3C(C)(C)O)n2)c(OC)cc1N(C)CCN1CCCCC1 [Compound 26, N-(5-(4-(5-chloro-4-fluoro-2-(2-hydroxypropan-2-yl)phenylamino)-1,3,5-triazin-2-ylamino)-4-methoxy-2-(methyl(2-(piperidin-1-yl)ethyl)amino)phenyl)acrylamide] | 43.5 | 45.3 | 32.4 | 99.5 | 9.5 | 123 | 103 | 40.5 | 1.3 | 57.8 | 253 | 12.6 | > 3000 | 50.5
7 | C=CC(=O)Nc1cc(Nc2ncnc(Nc3cc(F)c(F)cc3C(C)(C)O)n2)c(OC)cc1N1CC[C@@H](N(C)C)C1 [Compound 27, (R)-N-(5-(4-(4,5-difluoro-2-(2-hydroxypropan-2-yl)phenylamino)-1,3,5-triazin-2-ylamino)-2-(3-(dimethylamino)pyrrolidin-1-yl)-4-methoxyphenyl)acry lamide] | 28.3 | 17.7 | 5.2 | 64.7 | 15.6 | 57.9 | 34.8 | 19.4 | 0.7 | 26.2 | 106 | 11.6 | > 3000 | 120
8 | C=CC(=O)Nc1cc(Nc2ncnc(Nc3cc(Cl)c(F)cc3C(C)(C)O)n2)c(OC)cc1N(C)CCN1CCCC1 [Compound 29, N-(5-(4-(5-chloro-4-fluoro-2-(2-hydroxypropan-2-yl)phenylamino)-1,3,5-triazin-2-ylamino)-4-methoxy-2-(methyl(2-(pyrrolidin-1-yl)ethyl)amino)phenyl)acrylamide] | 22.9 | 35.5 | 6.9 | 45.2 | 7.6 | 52.7 | 45.3 | 17.4 | 1 | 20.1 | 68.3 | 11.3 | > 3000 | 44.8
9 | C=CC(=O)Nc1cc(Nc2ncnc(Nc3cc4ccn(C)c4cc3C(C)(C)O)n2)c(OC)cc1N(C)CCN(C)C [Compound 32, N-(2-((2-(dimethylamino)ethyl)(methyl)amino)-5-(4-(6-(2-hydroxypropan-2-yl)-1-methyl-1H-indol-5-ylamino)-1,3,5-triazin-2-ylamino)-4-methoxyphenyl)acrylamide] | 14.8 | 0.29 | 1.8 | 19.3 | 7.8 | 19.1 | 11 | 3.7 | 0.4 | 6 | 35.2 | 0.26 | > 3000 | 0.71
10 | C=CC(=O)Nc1cc(Nc2ncnc(Nc3cc(F)c(C4CC4)cc3C(C)(C)O)n2)c(OC)cc1N(C)CCN(C)C [Compound 34, N-(5-(4-(4-cyclopropyl-5-fluoro-2-(2-hydroxypropan-2-yl)phenylamino)-1,3,5-triazin-2-ylamino)-2-((2-(dimethylamino)ethyl)(methyl)amino)-4-methoxyphenyl)acrylamide] | 6.2 | 7.6 | 1.6 | 17.6 | 4.2 | 16.4 | 6 | 4.4 | 0.5 | 7.5 | 21.1 | 12.3 | > 3000 | 16.6
